Data set [1] can be described thus: Cytotoxicity test (MTT, three days). The format is cell-based. The following applies: mouse, l1210 cells, read-out: Survival rate; for viability at 72 h, 1 µM: final concentration 1 μM; for viability at 72 h, 5 µM: final concentration 5 μM; for viability at 72 h, 10 µM: final concentration 10 μM. As to the method:
L1210 (lymphocytic leukemia, mouse) cells in a logarithmic growth phase were collected and washed twice with HBSS (Hanks' balanced salt solution). The L1210 cells were resuspended at 5.0×10^4 cells/ml in RPMI 1640 medium containing 10% heat-inactivated fetal bovine serum. The cell suspension was dispensed in 100 μl aliquots into 96 well multi-plate. Each of compounds to be tested was dissolved in dimethylsulfoxide at a concentration of 10 mM. The solutions were stepwise diluted with RPMI 1640 solution containing 10% heat-inactivated fetal bovine serum. Each of the diluted samples was dispensed in an amount of 10 μl well in the 96 well multi-plate containing L1210 cells and incubated for three days at 37° C. in humidified 5% CO2 -air mixture. To each of the wells, 10 μl of MTT (3-(4,5-dimethylthiazol-2-yl)-2,5-diphenyltetrazolium bromide)(5 mg/ml in phosphate buffer free of Ca^2+ and Mg^2+) was added. Cultivation was continued for additional five hours at 37° C. in humidified 5% CO2 -air mixture. To each of the wells, 100 μl of 20% SDS (sodium dodecyl sulfate) in 0.01N HCl was added to solubilize the MTT formazan.
Absorbance was measured at 630 nm as a reference wavelength and 570 nm as a measuring wavelength using Corona Electric MTP22 Microplate Photometer. The measurement was conducted three times for each of the samples to obtain an average value and a standard deviation. Survival rate was calculated by the following equation:
Survival rate (5)=[(absorbance of test sample)/(absobance of […]

The target in data set [2] is T1, human sputum elastase (Homo sapiens, UniProt P08246).
T1 sequence (P08246 30-247 limits assumed): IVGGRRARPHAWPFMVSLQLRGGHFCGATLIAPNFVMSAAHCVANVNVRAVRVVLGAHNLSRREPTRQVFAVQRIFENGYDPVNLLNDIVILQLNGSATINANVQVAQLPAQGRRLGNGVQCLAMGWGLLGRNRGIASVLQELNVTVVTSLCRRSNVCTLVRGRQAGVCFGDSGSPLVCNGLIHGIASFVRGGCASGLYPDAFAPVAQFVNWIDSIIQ
Nature of the data set: Inhibitory effect on elastase (human sputum), spectrophotometric assay with MeOSuc-Ala-Ala-Pro-Val-pNA. The format is biochemical. The following applies: S: human sputum elastase; pH 8.0, 37° C.; read-out: IC50.
Procedure: (§1) Namely, it is a spectrophotometric assay using the synthesized substrate, methoxysuccinyl-alanyl-alanyl- prolyl-valyl-p-nitroanilide(MeOSuc-Ala-Ala-Pro-Val-pNA, Cambridge research biochemical Co.) which has high specificity on neutrophil elastase.
(§2) 20 μl of a test compound of various concentrations and 20 μl of enzyme solution (13 unit/ml) were added to 400 μl of 0.1M sodium phosphate buffer (pH 8.0). The mixture was incubated at 37° C. for 5 min, and then 20 μl of the substrate was added to the mixture in a final volume of 460 μl. The reaction was conducted by incubating thus obtained mixture at 37° C. for 20 min. The reaction was stopped by the addition of 300 μl of 20% acetic acid into the reaction mixture, and then p-nitroanilide released was measured by the spectrophotometrically at 405 nm.
(§3) Inhibition percents of the test compounds were calculated by the following equation:
(§4) Inhibition %=[1-(OD 405 nm value of the testing sample-background)/(OD 405 nm value of the control-background)]×100

Data set [3] deals with T2, human neutrophil elastase (Homo sapiens, UniProt P08246).
T2 construct: using elastase from human neutrophil or human sputum; from tissue; host or cells: human neutrophil
T2 sequence (P08246 30-247 limits assumed): T1 sequence (P08246 30-247 limits assumed)
Nature of the data set: Inhibitory effect on elastase (human neutrophil), spectrophotometric assay with MeOSuc-Ala-Ala-Pro-Val-pNA. The format is biochemical. The note with it: N: human neutrophil elastase; pH 8.0, 37° C.; read-out: IC50.
Procedure: as §1, §2, §3, §4

We go through 31 compounds from patent US5602161A, “Tetrazolylphenyl pivalate derivatives and medicinal composition containing the same as effective component” (Wakamoto Pharmaceutical Co., Ltd., priority 1994, dated 1997).

Counter-ions that a name gives are not always drawn.

As usually defined, the IC50 is the concentration that inhibits the measured activity by half.

With `CC(C)(C)C(=O)Oc1ccc(-c2nnn(Cc3ccccc3)n2)cc1` [Example 9, 4-(2-Benzyltetrazol-5-yl)phenyl pivalate], in data set [1], the viability at 72 h, 1 µM came out at 93.9%; the viability at 72 h, 5 µM is 100%; the viability at 72 h, 10 µM was 98.1%. Moreover, the IC50 in data set [2] was 170 nM.

With `CC(C)(C)C(=O)Oc1ccc(-c2nnn(CCCCC(=O)O)n2)cc1` [Example 93, 5-[5-(4-Pivaloyloxyphenyl)tetrazol-2-yl]valeric acid], in data set [3], the IC50 was 520 nM.

For `CC(C)(C)C(=O)Oc1ccc(-c2nnn(COCc3ccccc3)n2)cc1` [Example 15, 4-[2-(Benzyloxymethyl)tetrazol-5-yl]phenyl pivalate], in data set [3], the IC50 came out at 94 nM.

Turning to `COc1ccc(COCCCCn2nnc(-c3ccccc3OC(=O)C(C)(C)C)n2)cc1` [Example 22, 2-[2-[4-(4-Methoxybenzyloxy)butyl]tetrazol-5-yl]phenyl pivalate], in data set [1], the viability at 72 h, 1 µM came out at 102%; the viability at 72 h, 5 µM was 86.4%; the viability at 72 h, 10 µM is 86.7%. In addition, the IC50 in data set [2] was 4300 nM.

Turning to `Cc1cc(-c2nnn(Cc3ccc(N(C)C)cc3)n2)ccc1OC(=O)C(C)(C)C` [Example 49, 4-[2-[4-(Dimethylamino)benzyl]tetrazol-5-yl]-2-methylphenyl pivalate], in data set [1], the viability at 72 h, 1 µM was 103%; the viability at 72 h, 5 µM came to 105%; the viability at 72 h, 10 µM is 110%. Besides, the half-inhibitory concentration (IC50) in data set [2] was 700 nM.

On to `CN(C)CCOc1ccc(Cn2nnc(-c3ccc(OC(=O)C(C)(C)C)cc3)n2)cc1` [Example 46, 4-[2-[4-(2-Dimethylaminoethoxy)benzyl]tetrazol-5-yl]phenyl pivalate Hydrochloride], for which the IC50 in data set [3] was 89 nM.

As to `COc1ccc(CCCn2nnc(-c3ccc(OC(=O)C(C)(C)C)cc3)n2)cc1` [Example 20, 4-[2-[3-(4-Methoxyphenyl)propyl]tetrazol-5-yl]phenyl pivalate], in data set [3], the IC50 stood at 90 nM.

As for `CC(C)c1ccc(-n2nnc(-c3ccc(OC(=O)C(C)(C)C)cc3)n2)cc1` [Example 6, 4-[2-(4-Isopropylphenyl)tetrazol-5-yl)phenyl pivalate], in data set [1], the viability at 72 h, 1 µM amounted to 94.9%; the viability at 72 h, 5 µM is 88.7%; the viability at 72 h, 10 µM was 70.1%. Further, in data set [2], the IC50 turned out to be 4400 nM.

As to `COc1ccc(CCn2nnc(-c3ccc(OC(=O)C(C)(C)C)cc3)n2)cc1` [Example 44, 4-[2-[2-(4-Methoxyphenyl)ethyl]tetrazol-5-yl]phenyl pivalate], the IC50 in data set [3] stood at 85 nM.

As to `CC(C)(C)C(=O)Oc1ccc(-c2nnn(Cc3ccc(C(=O)O)cc3)n2)cc1` [Example 54, 4-[5-(4-Pivaloyloxyphenyl)tetrazol-2-ylmethyl]benzoic acid], in data set [1], the viability at 72 h, 1 µM is 101%; the viability at 72 h, 5 µM was determined as 107%; the viability at 72 h, 10 µM worked out at 100%. The IC50 in data set [2] was determined as 56 nM.

In the case of `CC(C)(C)C(=O)Oc1ccc(-c2nnn(Cc3ccc(O)cc3)n2)cc1` [Example 75, 4-[2-(4-Hydroxybenzyl)tetrazol-5-yl]phenyl pivalate], the IC50 in data set [3] was 80 nM.

With `CC(C)(C)C(=O)Oc1ccc(-c2nnn(C(C(=O)O)c3ccccc3)n2)cc1` (stereo not drawn) [Example 69, 2-Phenyl-2-[5-(4-pivaloyloxyphenyl)tetrazol-2-yl]acetic acid], in data set [1], the viability at 72 h, 1 µM amounted to 96.7%; the viability at 72 h, 5 µM is 105%; the viability at 72 h, 10 µM was determined as 101%. Also, in data set [2], the half-maximal inhibitory concentration (IC50) came to 820 nM.

As to `CC(C)(C)C(=O)Oc1ccc(-c2nnn(Cc3ccccc3N)n2)cc1` [Example 78, 4-[2-(2-Aminobenzyl)tetrazol-5-yl]phenyl pivalate], in data set [1], the viability at 72 h, 1 µM is 103%; the viability at 72 h, 5 µM came out at 107%; the viability at 72 h, 10 µM is 93.7%. The IC50 in data set [2] came to 91 nM.

In the case of `CC(C)(C)C(=O)Oc1ccc(-c2nnn(CC(=O)N3CCCCC3)n2)cc1` [Example 12, 4-[2-(Piperidinocarbonylmethyl)tetrazol-5-yl]phenyl pivalate], the IC50 in data set [3] is 510 nM.

Take `CC(C)(C)C(=O)Oc1ccc(-c2nnn(CC(=O)Nc3ccccc3)n2)cc1` [Example 11, 4-[2-(N-Phenylcarbamoylmethyl)tetrazol-5-yl]phenyl pivalate]: in data set [3], the IC50 is 850 nM.

`COc1cc(-c2nnn(Cc3ccc(N(C)C)cc3)n2)ccc1OC(=O)C(C)(C)C` [Example 48, 4-[2-[4-(Dimethylamino)benzyl]tetrazol-5-yl]-2-methoxyphenyl pivalate]: in data set [1], the viability at 72 h, 1 µM came to 99.4%; the viability at 72 h, 5 µM amounted to 94.6%; the viability at 72 h, 10 µM was determined as 86.1%. Further, the half-inhibitory concentration (IC50) in data set [2] was found to be 700 nM.

Take `CC(C)(C)C(=O)Oc1ccc(-c2nnn(Cc3ccc(C(F)(F)F)cc3)n2)cc1` [Example 17, 4-[2-(4-Trifluoromethylbenzyl)tetrazol-5-yl]phenyl pivalate]: the IC50 in data set [3] was 100 nM.

For the compound `COc1ccc(COCCn2nnc(-c3ccc(OC(=O)C(C)(C)C)cc3)n2)cc1` [Example 41, 4-[2-[2-(4-Methoxybenzyloxy)ethyl]tetrazol-5-yl]phenyl pivalate], the 50% inhibitory concentration (IC50) in data set [3] amounted to 65 nM.

Regarding `CC(C)(C)C(=O)Oc1ccc(-c2nnn(CC(=O)O)n2)cc1` [Example 80, 5-(4-Pivaloyloxyphenyl)-2-tetrazoleacetic acid], in data set [1], the viability at 72 h, 1 µM amounted to 93.9%; the viability at 72 h, 5 µM was found to be 98.1%; the viability at 72 h, 10 µM is 109%.

Turning to `CC(C)Cn1nnc(-c2ccc(OC(=O)C(C)(C)C)cc2)n1` [Example 37, 4-[2-(2-Methylpropyl)tetrazol-5-yl]phenyl pivalate], in data set [1], the viability at 72 h, 1 µM was 92.5%; the viability at 72 h, 5 µM was determined as 106%; the viability at 72 h, 10 µM was 95.5%. Also, the IC50 in data set [2] was found to be 180 nM.

For `COc1ccc(Cn2nnc(-c3ccc(OC(=O)C(C)(C)C)cc3)n2)cc1` [Example 13, 4-[2-(4-Methoxybenzyl)tetrazol-5-yl]phenyl pivalate], in data set [3], the IC50 was determined as 72 nM.

With `CC(C)[C@H](NC(=O)c1ccc(Cn2nnc(-c3ccc(OC(=O)C(C)(C)C)cc3)n2)cc1)C(=O)O` [Example 67, N-[4-[5-(4-Pivaloyloxyphenyl)tetrazol-2-ylmethyl]benzoyl]-L-valine], in data set [1], the viability at 72 h, 1 µM stood at 92.2%; the viability at 72 h, 5 µM was 100%; the viability at 72 h, 10 µM worked out at 90.1%. In data set [2], the IC50 amounted to 130 nM.

In the case of `CN(C(=O)OC(C)(C)C)c1ccc(Cn2nnnc2-c2ccc(OC(=O)C(C)(C)C)cc2)cc1` [Example 40, 4-[1-[4-(N-t-Butoxycarbonyl-N-methylamino)benzyl]tetrazol-5-yl]phenyl pivalate], the 50% inhibitory concentration (IC50) in data set [2] was 250 nM.

For the compound `CC(C)(C)C(=O)Oc1ccc(-c2nnn(CCO)n2)cc1` [Example 72, 4-[2-(2-Hydroxyethyl)tetrazol-5-yl]phenyl pivalate], the IC50 in data set [2] worked out at 500 nM.

In the case of `CC(C)(C)C(=O)Oc1ccc(-c2nnn(Cc3ccccc3NS(C)(=O)=O)n2)cc1` [Example 79, 4-[2-[2-(Methylsulfonylamino)benzyl]tetrazol-5-yl]phenyl pivalate], the IC50 in data set [2] turned out to be 140 nM.

For `CN(C)c1cccc(Cn2nnc(-c3ccc(OC(=O)C(C)(C)C)cc3)n2)c1` [Example 100, 4-[2-[3-(Dimethylamino)benzyl]tetrazol-5-yl]phenyl pivalate], the IC50 in data set [2] stood at 250 nM.

Regarding `CC(C)(C)C(=O)Oc1ccc(-c2nnn(Cc3ccc(N4CCCC4)cc3)n2)cc1` [Example 50, 4-[2-(4-Pyrrolidinobenzyl)tetrazol-5-yl]phenyl pivalate], the IC50 in data set [2] came to 1700 nM.

For the compound `CC(C)(C)OC(=O)COc1cccc(Cn2nnc(-c3ccc(OC(=O)C(C)(C)C)cc3)n2)c1` [Example 31, t-Butyl 3-[5-(4-pivaloyloxyphenyl)tetrazol-2-ylmethyl]phenoxyacetate], the IC50 in data set [2] was 100 nM.

Take `CC(C)(C)C(=O)Oc1ccc(-c2nnn(Cc3ccccc3OCCN)n2)cc1` [Example 84, 4-[2-[2-(2-Aminoethoxy)benzyl]tetrazol-5-yl]phenyl pivalate Hydrochloride]: in data set [2], the IC50 came out at 720 nM.

In the case of `CC(C)(C)OC(=O)COc1ccc(Cn2nnc(-c3ccc(OC(=O)C(C)(C)C)cc3)n2)cc1` [Example 32, t-Butyl 4-[5-(4-pivaloyloxyphenyl)tetrazol-2-ylmethyl]phenoxyacetate], the IC50 in data set [2] was 380 nM.

Consider `COc1cc(-c2nnn(Cc3cccc(OCCN)c3)n2)ccc1OC(=O)C(C)(C)C` [Example 88, 4-[2-[3-(2-Aminoethoxy)benzyl]tetrazol-5-yl]-2-methoxyphenyl pivalate Hydrochloride], for which the IC50 in data set [2] was found to be 650 nM.
